The values that follow come from patent US8158851B2, “Transgenic high tryptophan plants” (Monsanto Technology LLC, priority 2002, dated 2012).

Like-named read-outs stand apart in the source and are kept apart here.

Test [1] has as its target T1, Agrobacterium tumefaciens anthranilate synthase P293A mutant, SEQ ID NO: 63 (Agrobacterium fabrum, UniProt A9CI26, P293A).
T1 construct: no tag mentioned
Kind of test: Anthranilate synthase assay, P293A mutant. Conditions: 25° C. The format is biochemical. The text has this: (§1) Site directed mutagenesis was used to generate ten single amino acid substitutions six sites. The mutations were introduced into the Agrobacterium tumefaciens AS in pMON34705 using the QuikChange™ Site-Directed Mutagenesis Kit (Stratagene). The primers used for site directed mutagenesis were SEQ ID NOs: 9-42 (FIG. 7; F=forward, R=reverse). Each primer sequence is specific for alteration of the nucleic acid at a specific location in the sequence and thus changing the encoded codon to code for a new amino acid. For example, S51C designates a change from serine to cysteine at amino acid position 51 in the Agrobacterium tumefaciens AS peptide sequence.
(§2) Following mutagenesis the sequence of the entire gene was reconfirmed and the variants expressed and purified from E. coli as described below for the wild type enzyme. The resultant plasmids comprising mutant Agrobacterium tumefaciens AS are suitably cloned into a plasmid for overproduction of protein using the T7 expression system as described in Example 1.
(§3) Agrobacterium tumefaciens AS wild type and mutant enzymes were expressed in E. coli as described in Example 1. The purification of all the Agrobacterium tumefaciens AS enzymes, including wild type and mutants thereof, was performed at 4° C. The cells (approximate wet weight of 1 g) were suspended in 20 ml of purification buffer (50 mM potassium phosphate, pH 7.3, 10 mM MgCl2, 10 mM 2-mercaptoethanol, 10% glycerol) and lysed by ultrasonication (Branson sonifier Cell Disruptor, W185). Supernatant was collected after centrifugation of the homogenate at 20,000×g for 15 min. The supernatant was subjected to ammonium sulfate fractionation (30 to 65% saturation). The precipitate was collected after centrifugation at 20,000×g for 15 min and dissolved in 3 ml of the purification buffer and then loaded as a whole on an Econo-Pac 10DG desalting column, pre-equilibrated with the same buffer. Fractions containing the enzyme were detected by the developed assay and pooled. The pooled enzyme (4.3 mls) was loaded on a 10 ml DEAF Sephacel (Pharmacia Biotech) column (1.5×7.5 cm) equilibrated with the same buffer. […]
(§4) The standard assay for Agrobacterium tumefaciens AS was performed at 25° C. in an assay buffer containing 100 mM potassium phosphate, pH 7.0, 10 mM MgCl2, 1 mM dithiothreitol, 200 μM chorismate and 10 mM L-glutamine. […] The formation of anthranilate was directly monitored by the absorbance increase at 320 m for 3 minutes. Initial rate of reaction was calculated as unit absorbance increase per second based on the slope of the absorbance change over the reaction time. […] Kinetic parameters and IC50 of AS were calculated after fitting the data to a non-linear regression program (GraFit).

In test [2] the target is T2, Agrobacterium tumefaciens anthranilate synthase S50K mutant, SEQ ID NO: 69 (Agrobacterium fabrum, UniProt A9CI26, S50K).
T2 construct: no tag mentioned
Kind of test: Anthranilate synthase assay, S50K mutant. The test is classed as biochemical. Conditions: 25° C.
Description: as §1, §2, §3, §4

For test [3], the target named is T3, Agrobacterium tumefaciens anthranilate synthase P293G mutant, SEQ ID NO: 64 (Agrobacterium fabrum, UniProt A9CI26, P293G).
T3 construct: no tag mentioned
The experiment in a line: Anthranilate synthase assay, P293G mutant. The format is biochemical. The conditions noted are these: 25° C.
Description: as §1, §2, §3, §4

Test [4] concerns the target T4, Agrobacterium tumefaciens anthranilate synthase V48F mutant, SEQ ID NO: 58 (Agrobacterium fabrum, UniProt A9CI26, V48F).
T4 construct: no tag mentioned
Kind of test: Anthranilate synthase assay, V48F mutant. The format is biochemical. Conditions: 25° C.
Description: as §1, §2, §3, §4

Test [5] has as its target T5, Agrobacterium tumefaciens anthranilate synthase S51F mutant, SEQ ID NO: 60 (Agrobacterium fabrum, UniProt A9CI26, S51F).
T5 construct: no tag mentioned
The experiment in a line: Anthranilate synthase assay, S51F mutant. The format is biochemical. Conditions: 25° C.
Description: as §1, §2, §3, §4

The target of test [6] is T6, Agrobacterium tumefaciens anthranilate synthase S51C mutant, SEQ ID NO: 61 (Agrobacterium fabrum, UniProt A9CI26, S51C).
T6 construct: no tag mentioned
The experiment in a line: Anthranilate synthase assay, S51C mutant. The format is biochemical. Conditions: 25° C.
Description: as §1, §2, §3, §4

Test [7] concerns the target T7, Agrobacterium tumefaciens anthranilate synthase N52F mutant, SEQ ID NO: 62 (Agrobacterium fabrum, UniProt A9CI26, N52F).
T7 construct: no tag mentioned
Kind of test: Anthranilate synthase assay, N52F mutant. The test is classed as biochemical. Conditions: 25° C.
Description: as §1, §2, §3, §4

Test [8] concerns the target T8, Agrobacterium tumefaciens anthranilate synthase (AgroAS), wild type, SEQ ID NO: 4 (Agrobacterium fabrum, UniProt A9CI26).
T8 construct: no tag mentioned
Kind of test: Anthranilate synthase assay, anthranilate formation by absorbance at 320 nm. The test is classed as biochemical. Conditions: 25° C. As for the experimental part: Agrobacterium tumefaciens AS wild type and mutant enzymes were expressed in E. coli as described in Example 1. The purification of all the Agrobacterium tumefaciens AS enzymes, including wild type and mutants thereof, was performed at 4° C. The cells (approximate wet weight of 1 g) were suspended in 20 ml of purification buffer (50 mM potassium phosphate, pH 7.3, 10 mM MgCl2, 10 mM 2-mercaptoethanol, 10% glycerol) and lysed by ultrasonication (Branson sonifier Cell Disruptor, W185). Supernatant was collected after centrifugation of the homogenate at 20,000×g for 15 min. The supernatant was subjected to ammonium sulfate fractionation (30 to 65% saturation). The precipitate was collected after centrifugation at 20,000×g for 15 min and dissolved in 3 ml of the purification buffer and then loaded as a whole on an Econo-Pac 10DG desalting column, pre-equilibrated with the same buffer. Fractions containing the enzyme were detected by the developed assay and pooled. The pooled enzyme (4.3 mls) was loaded on a 10 ml DEAF Sephacel (Pharmacia Biotech) column (1.5×7.5 cm) equilibrated with the same buffer. The column was washed with 30 ml of the purification buffer and the enzyme was eluted with 30 ml of 50 mM NaCl in the same buffer. Fractions containing high AS activity were pooled and precipitated by 65% ammonium sulfate saturation and isolated and desalted as above. Fractions containing the enzyme were pooled and stored at −80° C.
The standard assay for Agrobacterium tumefaciens AS was performed at 25° C. in an assay buffer containing 100 mM potassium phosphate, pH 7.0, 10 mM MgCl2, 1 mM dithiothreitol, 200 μM chorismate and 10 mM L-glutamine. The reaction was started by adding 30 μl of enzyme to the reaction mixture and mixing. The formation of anthranilate was directly monitored by the absorbance increase at 320 m for 3 minutes. Initial rate of reaction was calculated as unit absorbance increase per second based on the slope of the absorbance change over the reaction time. Km for chorismate (Km^Cho) was determined in the total volume of 1 ml assay buffer containing 100 mM potassium phosphate, pH 7.0, 10 mM MgCl2, 1 mM dithiothreitol with 10 mM L-glutamine and varying the concentration of chorismate between 2.5-100 μM chorismate. The Km for glutamine (Km^Gln) was determined in the total volume of 1 ml assay buffer containing 100 mM potassium phosphate, pH 7.0, 10 mM MgCl2, 1 mM dithiothreitol with 200 μM chorismate and varying the concentration of L-glutamine between 0.1-2 mM L-glutamine. […] Kinetic parameters and IC50 of AS were calculated after fitting the data to a non-linear regression program (GraFit).

Test [9] has as its target T9, Agrobacterium tumefaciens anthranilate synthase V48Y mutant, SEQ ID NO: 59 (Agrobacterium fabrum, UniProt A9CI26, V48Y).
T9 construct: no tag mentioned
Kind of test: Anthranilate synthase assay, V48Y mutant. The format is biochemical. The conditions noted are these: 25° C.
Description: as §1, §2, §3, §4

In test [10] the test system is soy seed. The experiment in a line: Free amino acid analysis of soy seed (tryptophan content). The test is classed as in vivo, Glycine max. The conditions noted are these: R1 soy seeds expressing the mutant protein. As to the method:
Amino Acid Extraction: About 50 mg of crushed soy seed (5 mg of Arabidopsis) material was placed in each centrifuge vial. One milliliter of 5% trichloroacetic acid was added to each sample (100 μl for Arabidopsis). The samples were vortexed, and allowed to sit, with agitation, at room temperature for 15 min. They were then microcentrifuged for 15 min at 14000 rpm. Some of the supernatant was then removed, placed in a HPLC vial and sealed. Samples were kept at 4° C. in the analysis queue.
Amino Acid Analysis: The reagents utilized for amino acid analysis included the OPA reagent (o-phthalaldehyde and 3-mercaptopropionic acid in borate buffer (Hewlett-Packard, PN 5061-3335)) where the borate buffer (0.4 N in water, pH 10.2). The analysis was performed using the Agilent 1100 series HPLC system as described in the Agilent Technical Publication, “Amino Acid Analysis Using Zorbax Eclipse-AAA Columns and the Agilent 1100 HPLC”, Mar. 17, 2000. First, 0.5 μl of the sample was derivatized with 2.5 μl of OPA reagent in 10 μl of borate buffer. Second, the derivative is injected onto a Eclipse XDB-C18 5 μm, 4.6×150 mm column using a flow rate of 1.2 ml/min. Amino acid concentrations were measured using fluorescence: excitation at 340 nm, emission at 450 nm. Elution was with a gradient of HPLC Buffers A and B according to Table A, where HPLC Buffer A was 40 mM Na2HPO4, pH=7.8 and HPLC Buffer B was 9:9:2::Methanol:Acetonitrile:Water.
Amino acid standards were prepared from the dry chemicals, using all amino acids of interest. Proline analysis required an additional derivatization step with 9-fluorenylmethyl-chloroformate (FMOC). Amino acid standards were also sometimes purchased in concentrations ranging from 0 to 100 μg/ml. Samples were reported in μg/g of seed powder.
Mature R1 seed is produced and analyzed for free amino acid content using fluorescence detection as described in Agilent Technologies Technical Bulletin REV14. Five seeds are chosen for single seed analysis from each event. […] The highest levels of tryptophan have a negative impact on germination.

The mark [11] stands for this setting: pH 7.0, 200 μM chorismate, 0.1-2 mM L-glutamine, read-out: Km for glutamine (Km^Gln).
Setting [12] is: pH 7.0, 10 mM L-glutamine, 2.5-100 μM chorismate, read-out: Km for chorismate (Km^Cho).

The term Km denotes the concentration of substrate that gives half-maximal velocity. The kcat is the maximal rate divided by the concentration of active sites.

T8 sequence (A9CI26 entry or part of it): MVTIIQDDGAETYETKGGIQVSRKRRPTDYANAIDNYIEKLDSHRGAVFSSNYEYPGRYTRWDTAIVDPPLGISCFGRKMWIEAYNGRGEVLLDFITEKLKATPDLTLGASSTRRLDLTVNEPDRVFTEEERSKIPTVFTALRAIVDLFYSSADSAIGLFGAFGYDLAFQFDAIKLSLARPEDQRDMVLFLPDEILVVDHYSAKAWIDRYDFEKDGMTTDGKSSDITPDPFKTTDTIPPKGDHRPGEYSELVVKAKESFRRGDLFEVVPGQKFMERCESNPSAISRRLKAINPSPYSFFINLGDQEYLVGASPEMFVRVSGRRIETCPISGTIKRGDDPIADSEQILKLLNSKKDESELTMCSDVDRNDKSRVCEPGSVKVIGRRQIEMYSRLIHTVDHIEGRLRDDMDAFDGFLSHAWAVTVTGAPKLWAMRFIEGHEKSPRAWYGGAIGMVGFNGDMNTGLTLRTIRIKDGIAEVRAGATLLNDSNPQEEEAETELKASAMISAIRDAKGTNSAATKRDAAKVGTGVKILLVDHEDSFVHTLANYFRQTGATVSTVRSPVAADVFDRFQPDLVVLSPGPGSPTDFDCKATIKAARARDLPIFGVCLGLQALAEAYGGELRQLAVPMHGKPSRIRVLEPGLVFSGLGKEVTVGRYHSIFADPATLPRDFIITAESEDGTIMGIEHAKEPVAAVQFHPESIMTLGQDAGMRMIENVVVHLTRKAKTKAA
T3 sequence (A9CI26 whole entry P293G): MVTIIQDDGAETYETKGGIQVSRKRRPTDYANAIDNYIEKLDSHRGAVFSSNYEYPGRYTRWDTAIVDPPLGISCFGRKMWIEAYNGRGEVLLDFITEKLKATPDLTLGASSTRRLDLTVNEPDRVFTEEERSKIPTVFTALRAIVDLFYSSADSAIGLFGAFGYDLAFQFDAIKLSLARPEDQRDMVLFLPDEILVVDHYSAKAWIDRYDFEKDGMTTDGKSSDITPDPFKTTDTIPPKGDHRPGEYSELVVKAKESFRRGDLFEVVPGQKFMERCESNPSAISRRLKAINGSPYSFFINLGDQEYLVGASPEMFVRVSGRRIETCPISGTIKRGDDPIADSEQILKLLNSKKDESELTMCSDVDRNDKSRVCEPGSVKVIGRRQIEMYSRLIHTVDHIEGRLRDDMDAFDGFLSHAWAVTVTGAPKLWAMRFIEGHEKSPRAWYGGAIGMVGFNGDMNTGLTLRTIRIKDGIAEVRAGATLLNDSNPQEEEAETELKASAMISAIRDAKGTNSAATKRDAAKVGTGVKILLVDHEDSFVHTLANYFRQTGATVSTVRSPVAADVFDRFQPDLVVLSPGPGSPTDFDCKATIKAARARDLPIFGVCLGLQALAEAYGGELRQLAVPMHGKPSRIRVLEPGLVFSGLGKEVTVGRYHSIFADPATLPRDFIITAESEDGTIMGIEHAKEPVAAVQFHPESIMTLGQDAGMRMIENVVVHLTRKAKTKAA
T2 sequence (A9CI26 whole entry S50K): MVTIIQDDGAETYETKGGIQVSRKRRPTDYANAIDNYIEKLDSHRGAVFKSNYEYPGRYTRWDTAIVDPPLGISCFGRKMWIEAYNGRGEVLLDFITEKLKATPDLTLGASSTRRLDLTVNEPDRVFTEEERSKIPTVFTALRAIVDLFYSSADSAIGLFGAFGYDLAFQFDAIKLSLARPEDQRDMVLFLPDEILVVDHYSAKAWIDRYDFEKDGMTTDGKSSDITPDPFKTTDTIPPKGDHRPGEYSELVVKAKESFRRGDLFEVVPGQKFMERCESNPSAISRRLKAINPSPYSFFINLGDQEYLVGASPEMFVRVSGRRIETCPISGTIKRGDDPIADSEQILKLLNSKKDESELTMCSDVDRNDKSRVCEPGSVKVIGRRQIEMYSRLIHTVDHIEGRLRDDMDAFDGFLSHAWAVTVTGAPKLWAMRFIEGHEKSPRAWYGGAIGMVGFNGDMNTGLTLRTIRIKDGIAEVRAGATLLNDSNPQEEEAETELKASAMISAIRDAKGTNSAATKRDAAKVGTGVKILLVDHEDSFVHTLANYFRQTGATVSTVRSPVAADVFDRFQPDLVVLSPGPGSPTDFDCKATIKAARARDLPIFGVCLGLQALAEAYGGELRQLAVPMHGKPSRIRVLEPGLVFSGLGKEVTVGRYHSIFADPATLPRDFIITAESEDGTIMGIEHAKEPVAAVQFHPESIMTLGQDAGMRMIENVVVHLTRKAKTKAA
T7 sequence (A9CI26 whole entry N52F): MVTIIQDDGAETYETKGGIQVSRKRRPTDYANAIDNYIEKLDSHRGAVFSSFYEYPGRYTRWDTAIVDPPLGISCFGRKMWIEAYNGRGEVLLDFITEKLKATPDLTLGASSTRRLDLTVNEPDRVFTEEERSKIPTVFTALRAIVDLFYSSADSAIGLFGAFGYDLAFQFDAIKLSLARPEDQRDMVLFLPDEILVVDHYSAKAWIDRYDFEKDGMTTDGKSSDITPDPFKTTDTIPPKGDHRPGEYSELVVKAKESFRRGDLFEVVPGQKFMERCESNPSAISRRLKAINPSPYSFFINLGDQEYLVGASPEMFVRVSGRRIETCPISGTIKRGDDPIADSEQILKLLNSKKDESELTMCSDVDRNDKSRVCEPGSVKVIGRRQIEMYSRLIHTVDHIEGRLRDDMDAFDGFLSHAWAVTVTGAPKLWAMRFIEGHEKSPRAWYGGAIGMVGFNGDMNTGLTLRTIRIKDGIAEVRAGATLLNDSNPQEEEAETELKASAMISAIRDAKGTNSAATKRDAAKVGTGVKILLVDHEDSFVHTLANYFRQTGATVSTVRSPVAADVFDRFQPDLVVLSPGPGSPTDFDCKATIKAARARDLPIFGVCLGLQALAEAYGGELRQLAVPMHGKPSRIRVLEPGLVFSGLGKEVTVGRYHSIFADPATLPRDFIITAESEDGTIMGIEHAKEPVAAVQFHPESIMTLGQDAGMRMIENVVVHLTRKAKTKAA
T6 sequence (A9CI26 whole entry S51C): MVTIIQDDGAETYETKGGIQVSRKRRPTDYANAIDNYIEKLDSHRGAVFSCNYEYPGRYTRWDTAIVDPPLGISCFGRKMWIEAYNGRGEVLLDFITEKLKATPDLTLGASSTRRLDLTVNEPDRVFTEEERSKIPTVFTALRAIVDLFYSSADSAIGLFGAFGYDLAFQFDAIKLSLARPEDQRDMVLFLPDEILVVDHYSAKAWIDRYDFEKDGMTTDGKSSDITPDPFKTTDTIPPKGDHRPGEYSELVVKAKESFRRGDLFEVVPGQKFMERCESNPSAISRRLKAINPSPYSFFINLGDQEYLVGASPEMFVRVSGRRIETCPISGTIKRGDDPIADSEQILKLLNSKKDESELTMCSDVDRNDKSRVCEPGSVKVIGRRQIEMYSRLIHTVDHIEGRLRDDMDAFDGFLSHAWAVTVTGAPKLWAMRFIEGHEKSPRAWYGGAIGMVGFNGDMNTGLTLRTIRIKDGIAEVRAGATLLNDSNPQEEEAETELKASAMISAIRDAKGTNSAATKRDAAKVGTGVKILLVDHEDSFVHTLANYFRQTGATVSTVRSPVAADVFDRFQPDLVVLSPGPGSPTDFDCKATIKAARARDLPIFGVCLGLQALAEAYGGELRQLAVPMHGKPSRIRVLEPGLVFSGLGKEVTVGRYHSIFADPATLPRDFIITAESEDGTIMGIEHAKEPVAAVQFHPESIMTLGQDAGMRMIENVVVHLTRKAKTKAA
T9 sequence (A9CI26 whole entry V48Y): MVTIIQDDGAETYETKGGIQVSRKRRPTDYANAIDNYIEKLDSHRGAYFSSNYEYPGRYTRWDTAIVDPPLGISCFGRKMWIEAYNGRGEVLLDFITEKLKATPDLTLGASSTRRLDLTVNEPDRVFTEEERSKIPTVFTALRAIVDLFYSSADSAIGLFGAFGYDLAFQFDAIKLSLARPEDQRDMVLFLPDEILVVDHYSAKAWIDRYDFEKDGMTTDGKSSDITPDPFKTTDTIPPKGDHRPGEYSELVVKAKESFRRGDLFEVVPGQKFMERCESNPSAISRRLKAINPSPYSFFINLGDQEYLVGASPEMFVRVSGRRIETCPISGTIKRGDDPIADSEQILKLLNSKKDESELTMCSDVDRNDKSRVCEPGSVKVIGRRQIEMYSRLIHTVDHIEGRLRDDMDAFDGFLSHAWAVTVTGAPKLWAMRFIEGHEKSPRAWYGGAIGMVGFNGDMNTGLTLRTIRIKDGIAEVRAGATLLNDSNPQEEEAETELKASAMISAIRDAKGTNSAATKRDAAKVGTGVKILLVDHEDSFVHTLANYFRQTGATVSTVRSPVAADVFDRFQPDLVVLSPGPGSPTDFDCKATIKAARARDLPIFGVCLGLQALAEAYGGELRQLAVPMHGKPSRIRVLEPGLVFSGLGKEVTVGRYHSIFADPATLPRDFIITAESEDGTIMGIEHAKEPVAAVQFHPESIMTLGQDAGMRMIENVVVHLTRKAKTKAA

On to `NC(=O)CC[C@H](N)C(=O)O` [glutamine, L-glutamine], for which the Km came to 160 µM in test [1] (setting [11]); 10 µM in [2] (setting [11]); 70 µM in test [3] (setting [11]); 80 µM in [4] (setting [11]); 60 µM in test [5] (setting [11]); 80 µM in [6] (setting [11]). The Km in test [7] (setting [11]) stood at 40 µM; in [8] (setting [11]) it was 110 µM; in test [9] (setting [11]), 100 µM.
`C=C(O[C@@H]1C=C(C(=O)O)C=C[C@H]1O)C(=O)O` [chorismate]: the kcat in [1] (pH 7.0) stood at 0.35 s⁻¹; in [2] (pH 7.0) it was 0.13 s⁻¹; in test [3] (pH 7.0) it was 0.48 s⁻¹; in [4] (pH 7.0) it was 0.24 s⁻¹; in test [5] (pH 7.0) it was 0.08 s⁻¹; in test [6] (pH 7.0) it was 0.15 s⁻¹. The figures for the turnover number (kcat) in test [7] (pH 7.0), in [8] (pH 7.0) and in test [9] (pH 7.0) were 0.21 s⁻¹, 0.43 s⁻¹ and 0.18 s⁻¹, respectively. In addition, the “kcat/Km^Cho” value in [1] (pH 7.0) is 14600 M⁻¹ s⁻¹; in test [2] (pH 7.0) it was 10000 M⁻¹ s⁻¹; in test [3] (pH 7.0) it was 14500 M⁻¹ s⁻¹; in test [4] (pH 7.0) it was 53300 M⁻¹ s⁻¹; in test [5] (pH 7.0), 8000 M⁻¹ s⁻¹; in test [6] (pH 7.0), 53600 M⁻¹ s⁻¹. In addition, the “kcat/Km^Cho” value in test [7] (pH 7.0) is 38200 M⁻¹ s⁻¹; in test [8] (pH 7.0), 53700 M⁻¹ s⁻¹; in test [9] (pH 7.0), 42800 M⁻¹ s⁻¹. Also, the Km in test [1] (setting [12]) was 24 µM; in test [2] (setting [12]), 13 µM; in [3] (setting [12]), 33 µM; in test [4] (setting [12]), 4.5 µM; in [5] (setting [12]), 10 µM; in test [6] (setting [12]), 2.8 µM. The Michaelis constant (Km) worked out at 5.5 µM in test [7] (setting [12]), 8 µM in test [8] (setting [12]) and 4.2 µM in test [9] (setting [12]).

B1: V48F (protein)
chain: MVTIIQDDGAETYETKGGIQVSRKRRPTDYANAIDNYIEKLDSHRGAFFSSNYEYPGRYTRWDTAIVDPPLGISCFGRKMWIEAYNGRGEVLLDFITEKLKATPDLTLGASSTRRLDLTVNEPDRVFTEEERSKIPTVFTALRAIVDLFYSSADSAIGLFGAFGYDLAFQFDAIKLSLARPEDQRDMVLFLPDEILVVDHYSAKAWIDRYDFEKDGMTTDGKSSDITPDPFKTTDTIPPKGDHRPGEYSELVVKAKESFRRGDLFEVVPGQKFMERCESNPSAISRRLKAINPSPYSFFINLGDQEYLVGASPEMFVRVSGRRIETCPISGTIKRGDDPIADSEQILKLLNSKKDESELTMCSDVDRNDKSRVCEPGSVKVIGRRQIEMYSRLIHTVDHIEGRLRDDMDAFDGFLSHAWAVTVTGAPKLWAMRFIEGHEKSPRAWYGGAIGMVGFNGDMNTGLTLRTIRIKDGIAEVRAGATLLNDSNPQEEEAETELKASAMISAIRDAKGTNSAATKRDAAKVGTGVKILLVDHEDSFVHTLANYFRQTGATVSTVRSPVAADVFDRFQPDLVVLSPGPGSPTDFDCKATIKAARARDLPIFGVCLGLQALAEAYGGELRQLAVPMHGKPSRIRVLEPGLVFSGLGKEVTVGRYHSIFADPATLPRDFIITAESEDGTIMGIEHAKEPVAAVQFHPESIMTLGQDAGMRMIENVVVHLTRKAKTKAA
modifications: An A. tumefaciens mutant.
Turning to B1, the amounts of tryptophan result in [10] is on record as “very high amounts of tryptophan”.
